Measured values reported in PubChem BioAssay AID1963968 (Molecular Pharmacology Branch, DTP, NCI, 2024).
pIC50: −log10 of the molar value.

System: 945468-187-T-J3-PDC spheroids with HUVEC/MSC, viability
Test: Anticancer human tumor 945468-187-T-J3-PDC patient-derived rectal carcinoma cell line growth inhibition [PI3K]
Details: for pIC50: curve of first compound; for viability, T/C: stronger effect = lower value
Summary of the method: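 We assembled tumor spheroids that included a stromal compartment of HUVEC and MSCs, then exposed them to targeted agents alone and together with PI3K pathway inhibitors. Concentration series descended by half-log from clinically achievable Cmax levels. Viability served as the endpoint.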

[1] = second compound 0.00316 µM, first compound 0.0316 µM
[2] = second compound 0.00316 µM, first compound 0.1 µM
[3] = second compound 0.00316 µM, first compound 0.316 µM
[4] = second compound 0.00316 µM, first compound 1 µM
[5] = second compound 0.01 µM, first compound 0.0316 µM
[6] = second compound 0.01 µM, first compound 0.1 µM
[7] = second compound 0.01 µM, first compound 0.316 µM
[8] = second compound 0.01 µM, first compound 1 µM
[9] = second compound 0.0316 µM, first compound 0.0316 µM
[10] = second compound 0.0316 µM, first compound 0.1 µM
[11] = second compound 0.0316 µM, first compound 0.316 µM
[12] = second compound 0.0316 µM, first compound 1 µM
[13] = second compound 0.1 µM, first compound 0.0316 µM
[14] = second compound 0.1 µM, first compound 0.1 µM
[15] = second compound 0.1 µM, first compound 0.316 µM
[16] = second compound 0.1 µM, first compound 1 µM
[17] = second compound 0.316 µM, first compound 0.0316 µM
[18] = second compound 0.316 µM, first compound 0.1 µM
[19] = second compound 0.316 µM, first compound 0.316 µM
[20] = second compound 0.316 µM, first compound 1 µM
[21] = second compound 1 µM, first compound 0.0316 µM
[22] = second compound 1 µM, first compound 0.1 µM
[23] = second compound 1 µM, first compound 0.316 µM
[24] = second compound 1 µM, first compound 1 µM
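Note: spheroids exposed to agents for 7 days before viability read.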
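Throughout, for viability, T/C: 100% = DMSO vehicle control viability.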

## CC(C)NCC(C(=O)N1CCN(c2ncnc3c2C(C)CC3O)CC1)c1ccc(Cl)cc1 (centres undefined) + CC(Nc1ccc2c(c1)OCCn1cc(N3C(=O)OCC3C(F)F)nc1-2)C(N)=O
Second compound 0.00316 µM
  pIC50: 5.07
Second compound 0.01 µM
  pIC50: < 5.00
Second compound 0.0316 µM
  pIC50: 5.16
Second compound 0.1 µM
  pIC50: 5.55
Second compound 0.316 µM
  pIC50: 6.04
Second compound 1 µM
  pIC50: 5.86
[1]
  viability, T/C: 93.8%
[2]
  viability, T/C: 93.9%
[3]
  viability, T/C: 103%
[4]
  viability, T/C: 91.6%
Second compound 0.00316 µM, first compound 3.16 µM
  viability, T/C: 58.6%
Second compound 0.00316 µM, first compound 10 µM
  viability, T/C: 48.5%
[5]
  viability, T/C: 111%
[6]
  viability, T/C: 103%
[7]
  viability, T/C: 104%
[8]
  viability, T/C: 96.7%
Second compound 0.01 µM, first compound 3.16 µM
  viability, T/C: 54.9%
Second compound 0.01 µM, first compound 10 µM
  viability, T/C: 59.2%
[9]
  viability, T/C: 93.7%
[10]
  viability, T/C: 91.8%
[11]
  viability, T/C: 94.1%
[12]
  viability, T/C: 90.9%
Second compound 0.0316 µM, first compound 3.16 µM
  viability, T/C: 55.6%
Second compound 0.0316 µM, first compound 10 µM
  viability, T/C: 47.3%
[13]
  viability, T/C: 101%
[14]
  viability, T/C: 93.4%
[15]
  viability, T/C: 87%
[16]
  viability, T/C: 76.4%
Second compound 0.1 µM, first compound 3.16 µM
  viability, T/C: 45%
Second compound 0.1 µM, first compound 10 µM
  viability, T/C: 31.5%
[17]
  viability, T/C: 101%
[18]
  viability, T/C: 89.3%
[19]
  viability, T/C: 62.7%
[20]
  viability, T/C: 49.6%
Second compound 0.316 µM, first compound 3.16 µM
  viability, T/C: 39%
Second compound 0.316 µM, first compound 10 µM
  viability, T/C: 29.3%
[21]
  viability, T/C: 62.8%
[22]
  viability, T/C: 70.4%
[23]
  viability, T/C: 57.8%
[24]
  viability, T/C: 57.3%
Second compound 1 µM, first compound 3.16 µM
  viability, T/C: 34.1%
Second compound 1 µM, first compound 10 µM
  viability, T/C: 26.7%

## CCN1CCN(Cc2ccc(Nc3ncc(F)c(-c4cc(F)c5nc(C)n(C(C)C)c5c4)n3)nc2)CC1 + CC(Nc1ccc2c(c1)OCCn1cc(N3C(=O)OCC3C(F)F)nc1-2)C(N)=O
Second compound 0.00316 µM
  pIC50: < 6.00
Second compound 0.01 µM
  pIC50: < 6.00
Second compound 0.0316 µM
  pIC50: < 6.00
Second compound 0.1 µM
  pIC50: 6.27
Second compound 0.316 µM
  pIC50: 6.72
Second compound 1 µM
  pIC50: 7.53
Second compound 0.00316 µM, first compound 0.00316 µM
  viability, T/C: 92%
Second compound 0.00316 µM, first compound 0.01 µM
  viability, T/C: 103%
[1]
  viability, T/C: 98%
[2]
  viability, T/C: 95.6%
[3]
  viability, T/C: 95.2%
[4]
  viability, T/C: 93.1%
Second compound 0.01 µM, first compound 0.00316 µM
  viability, T/C: 89.4%
Second compound 0.01 µM, first compound 0.01 µM
  viability, T/C: 103%
[5]
  viability, T/C: 95.1%
[6]
  viability, T/C: 106%
[7]
  viability, T/C: 123%
[8]
  viability, T/C: 70.1%
Second compound 0.0316 µM, first compound 0.00316 µM
  viability, T/C: 104%
Second compound 0.0316 µM, first compound 0.01 µM
  viability, T/C: 96.7%
[9]
  viability, T/C: 94.2%
[10]
  viability, T/C: 97.3%
[11]
  viability, T/C: 102%
[12]
  viability, T/C: 53%
Second compound 0.1 µM, first compound 0.00316 µM
  viability, T/C: 91.2%
Second compound 0.1 µM, first compound 0.01 µM
  viability, T/C: 102%
[13]
  viability, T/C: 94.1%
[14]
  viability, T/C: 94.1%
[15]
  viability, T/C: 69%
[16]
  viability, T/C: 28.1%
Second compound 0.316 µM, first compound 0.00316 µM
  viability, T/C: 87.7%
Second compound 0.316 µM, first compound 0.01 µM
  viability, T/C: 77.5%
[17]
  viability, T/C: 77.8%
[18]
  viability, T/C: 69.7%
[19]
  viability, T/C: 35%
[20]
  viability, T/C: 23.4%
Second compound 1 µM, first compound 0.00316 µM
  viability, T/C: 76.9%
Second compound 1 µM, first compound 0.01 µM
  viability, T/C: 56.7%
[21]
  viability, T/C: 48.6%
[22]
  viability, T/C: 43%
[23]
  viability, T/C: 32.1%
[24]
  viability, T/C: 25%
